Data taken from patent US8778951B2, “Heteroaryl compounds and their uses” (Novartis AG, priority 2009, dated 2014).

target: Cdk9/cyclinT1 (Homo sapiens (Human), UniProt P50750); test: Cdk9/CyclinT1 IMAP Protocol (fluorescence polarization kinase assay); assay type: biochemical; conditions: Table 2; generated using one of the two Cdk9/cyclinT1 assays (IMAP or Alpha Screen), not specified which; unit inferred
Method: Cdk9/CyclinT1 IMAP Protocol
The biological activity of the compounds of the invention can be determined using the assay described below.
Cdk9/cyclinT1 is purchased from Millipore, cat #14-685. The final total protein concentration in the assay 4 nM. […] The final concentration of peptide substrate is 100 nM. The ATP substrate (Adenosine-5′-triphosphate) is purchased from Roche Diagnostics, cat#1140965. The final concentration of ATP substrate is 6 uM. IMAP (Immobilized Metal Assay for Phosphochemicals) Progressive Binding reagent is purchased from Molecular Devices, cat#R8139. Fluorescence polarization (FP) is used for detection. The 5TAMRA-cdk7tide peptide is phosphorylated by Cdk9/cyclinT1 kinase using the ATP substrate. The Phospho-5TAMRA-cdk7tide peptide substrate is bound to the IMAP Progressive Binding Reagent. The binding of the IMAP Progressive Binding Reagent changes the fluorescence polarization of the 5TAMRA-cdk7tide peptide which is measured at an excitation of 531 nm and FP emission of 595 nm. Assays are carried out in 100 mM Tris, pH=7.2, mM MgCl2, 0.05% NaN3, 0.01% Tween-20, 1 mM dithiothreitol and 2.5% dimethyl sulfoxide. IMAP Progressive Binding Reagent is diluted 1:800 in 100% 1× Solution A from Molecular Devices, cat#R7285.
General protocol is as follows: To 10 ul of cdk9/cyclinT1, 0.5 ul of test compound in dimethyl sulfoxide is added. 5TAMRA-cdk7tide and ATP are mixed. 10 ul of the 5TAMRA-cdk7tide/ATP mix is added to start the reaction. The reaction is allowed to proceed for 4.5 hrs. 60 uL of IMAP Progressive Binding Reagent is added. After >1 hr of incubation, plates are read on the Envision 2101 from Perkin-Elmer. The assay is run in a 384-well format using black Corning plates, cat#3573.

Chain of Cdk9/cyclinT1 (P50750 whole entry): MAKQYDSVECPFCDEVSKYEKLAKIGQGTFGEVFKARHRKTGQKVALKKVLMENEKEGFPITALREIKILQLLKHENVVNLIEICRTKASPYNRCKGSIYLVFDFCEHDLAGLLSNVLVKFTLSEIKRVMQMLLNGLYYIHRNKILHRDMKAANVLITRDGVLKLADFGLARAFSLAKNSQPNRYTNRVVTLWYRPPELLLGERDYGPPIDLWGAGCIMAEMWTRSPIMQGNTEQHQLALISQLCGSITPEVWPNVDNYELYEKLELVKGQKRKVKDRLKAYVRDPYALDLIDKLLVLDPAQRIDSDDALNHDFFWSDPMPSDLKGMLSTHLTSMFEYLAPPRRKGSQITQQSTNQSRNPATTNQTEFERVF
Chain of Cdk9/cyclinT1 (O60563 whole entry partner): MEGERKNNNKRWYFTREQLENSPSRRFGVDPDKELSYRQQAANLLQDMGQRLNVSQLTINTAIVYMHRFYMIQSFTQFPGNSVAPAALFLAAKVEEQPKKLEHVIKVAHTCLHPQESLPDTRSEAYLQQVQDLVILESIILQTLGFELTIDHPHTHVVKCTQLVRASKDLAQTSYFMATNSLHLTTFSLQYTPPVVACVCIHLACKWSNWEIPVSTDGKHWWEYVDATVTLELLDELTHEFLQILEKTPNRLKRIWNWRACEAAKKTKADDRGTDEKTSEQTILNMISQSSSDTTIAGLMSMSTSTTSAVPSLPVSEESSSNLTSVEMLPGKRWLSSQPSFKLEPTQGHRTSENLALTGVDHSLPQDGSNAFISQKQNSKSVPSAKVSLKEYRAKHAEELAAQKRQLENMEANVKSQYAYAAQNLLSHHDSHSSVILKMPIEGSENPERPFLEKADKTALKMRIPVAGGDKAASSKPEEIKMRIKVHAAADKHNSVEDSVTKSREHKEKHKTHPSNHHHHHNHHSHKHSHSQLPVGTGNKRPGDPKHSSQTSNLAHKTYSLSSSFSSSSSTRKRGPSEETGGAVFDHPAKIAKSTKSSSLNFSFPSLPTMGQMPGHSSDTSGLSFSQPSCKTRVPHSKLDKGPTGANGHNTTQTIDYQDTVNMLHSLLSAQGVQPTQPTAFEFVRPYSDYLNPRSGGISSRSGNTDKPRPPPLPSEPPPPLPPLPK

| Structure (SMILES) | IC50 |
| --- | --- |
| CN1CCC[C@H]1C(=O)N[C@H]1CC[C@H](Nc2cc(-c3cccc(NCc4cccc(F)c4)n3)c(Cl)cn2)CC1 [Compound 80] | 31.7 nM |
| Fc1cccc(CNc2cccc(-c3cc(NCCC4CCOCC4)ncc3Cl)n2)c1 [Compound 174] | 29 nM |
| Cc1ccc(CNc2cccc(-c3cc(N[C@H]4CC[C@H](N)CC4)ncc3Cl)n2)cc1 [Compound 51] | 17.4 nM |
| Clc1cnc(N[C@@H]2CCCNC2)cc1-c1cccc(NCC2CCCCC2)n1 [Compound 89] | 2580 nM |
| O[C@H]1CC[C@H](Nc2cc(-c3cccc(NCC4COCCO4)n3)c(Cl)cn2)CC1 (some centres unmarked) [Compound 135] | 142 nM |
| COc1cccc(CNc2cccc(-c3cc(N[C@H]4CC[C@H](N)CC4)ncc3Cl)n2)c1 [Compound 44] | 11.2 nM |
| O[C@H]1CC[C@H](Nc2cc(-c3cccc(NCc4ccc(F)cc4)n3)c(Cl)cn2)CC1 [Compound 134] | 10.5 nM |
| O[C@H]1CC[C@@H](Nc2cc(-c3cccc(NCc4cccc(F)c4)n3)c(Cl)cn2)CC1 [Compound 182] | 21.1 nM |
| CN(CC1CCOCC1)c1cncc(-c2cc(N[C@H]3CC[C@H](CN)CC3)ncc2Cl)n1 [Compound 249, 6-(2-(trans-4-(aminomethyl)cyclohexylamino)-5-chloropyridin-4-yl)-N-methyl-N-((tetrahydro-2H-pyran-4-yl)methyl)pyrazin-2-amine] | 31.8 nM |
| N[C@H]1CC[C@H](Nc2cc(-c3cc(C(F)(F)F)cc(NCc4cccc(F)c4)n3)ccn2)CC1 [Compound 11, N2′-(trans-4-aminocyclohexyl)-N6-(3-fluorobenzyl)-4-(trifluoromethyl)-2,4′-bipyridine-2′,6-diamine] | 133 nM |
| NC[C@H]1CC[C@H](Nc2cc(-c3cncc(NCC4CCOCC4)n3)c(Cl)cn2)CC1 [Compound 246] | 11.5 nM |
| N[C@H]1CC[C@H](Nc2cc(-c3cccc(NCc4cccnc4)n3)c(Cl)cn2)CC1 [Compound 26] | 16.3 nM |
| Clc1cnc(N[C@H]2CCCNC2)cc1-c1cccc(NCc2ccncc2)n1 [Compound 99] | 679 nM |
| Fc1ccc(CNc2cccc(-c3cc(NC4CCNCC4)ncc3Cl)n2)cc1F [Compound 74] | 41.6 nM |
| N[C@H]1CC[C@H](Nc2ncc(Cl)c(-c3cccc(NCC4CCCCC4)n3)n2)CC1 [Compound 3, trans-N1-(5-chloro-4-(6-(cyclohexylmethylamino)pyridin-2-yl)pyrimidin-2-yl)cyclohexane-1,4-diamine] | 238 nM |
| Clc1cnc(N[C@H]2CCCNC2)cc1-c1cccc(NCC2CCOCC2)n1 [Compound 96] | 1280 nM |
| N[C@H]1CC[C@H](Nc2cc(-c3cccc(N[C@@H]4CC45CCOCC5)n3)c(Cl)cn2)CC1 [Compound 212] | 54.6 nM |
| CN1CCC(CNc2cc(-c3cncc(NCC4CCOCC4)n3)c(Cl)cn2)CC1 [Compound 209] | 183 nM |
| CC(=O)N1CCC[C@H](CNc2cccc(-c3cc(N[C@H]4CC[C@H](N)CC4)ncc3Cl)n2)C1 [Compound 215, 1-((R)-3-((2′-(trans-4-aminocyclohexylamino)-5′-chloro-2,4′-bipyridin-6-yl-amino)methyl)piperidin-1-yl)ethanone] | 65.5 nM |
| O=C(N[C@H]1CC[C@H](Nc2cc(-c3cccc(NCc4cccc(F)c4)n3)c(Cl)cn2)CC1)c1cccnc1 [Compound 81] | 54.2 nM |
| O[C@H]1CC[C@H](Nc2cc(-c3cccc(NC[C@@H]4CCCNC4)n3)c(Cl)cn2)CC1 [Compound 123] | 42.8 nM |
| NC[C@H]1CC[C@H](Nc2cc(-c3cccc(NCc4cccc(OC(F)F)c4)n3)c(Cl)cn2)CC1 [Compound 64] | 54.6 nM |
| CCS(=O)(=O)N1CCC(Nc2cc(-c3cccc(NCc4cccc(F)c4)n3)c(Cl)cn2)CC1 [Compound 6, 5′-chloro-N2′-(1-(ethylsulfonyl)piperidin-4-yl)-N6-(3-fluorobenzyl)-2,4′-bipyridine-2′,6-diamine] | 136 nM |
| Fc1ccc(CNc2cccc(-c3cc(N[C@H]4CCCNC4)ncc3Cl)n2)cc1F [Compound 100] | 309 nM |

Stronger by IC50, values ahead:

| IC50 | Structure (SMILES) |
| --- | --- |
| 9 nM | COC[C@@H](C)N[C@H]1CC[C@H](Nc2cc(-c3cccc(NCC4(OC)CCCCC4)n3)c(Cl)cn2)CC1 [Compound 306] |
| 8.93 nM | COCCN[C@H]1CC[C@H](Nc2cc(-c3cccc(NCC4CCOCC4)n3)c(Cl)cn2)CC1 [Compound 276] |
| 7.95 nM | N[C@H]1CC[C@H](Nc2cc(-c3cccc(NCc4cccc(C(F)(F)F)c4)n3)c(Cl)cn2)CC1 [Compound 47] |
| 7.95 nM | N[C@H]1CC[C@H](Nc2cc(-c3nc(NCC4CCOCC4)cnc3Cl)c(Cl)cn2)CC1 [Compound 223, trans-N1-(5-chloro-4-(3-chloro-6-((tetrahydro-2H-pyran-4-yl)methyl)aminopyrazin-2-yl)pyridin-2-yl)cyclohexane-1,4-diamine] |
| 7.95 nM | OCCN[C@H]1CC[C@H](Nc2cc(-c3cccc(NCc4cccc(F)c4)n3)c(Cl)cn2)CC1 [Compound 19, 2-(trans-4-(5′-chloro-6-(3-fluorobenzylamino)-2,4′-bipyridin-2′-yl-amino)cyclohexylamino)ethanol] |
| 7.95 nM | CS(=O)(=O)CCN[C@H]1CC[C@H](Nc2cc(-c3cccc(NCc4cccc(F)c4)n3)c(Cl)cn2)CC1 [Compound 20, 5′-chloro-N6-(3-fluorobenzyl)-N2′-(trans-4-(2-(methylsulfonyl)ethylamino)cyclohexyl)-2,4′-bipyridine-2′,6-diamine] |
| 7.95 nM | CN(Cc1cccc(F)c1)c1cccc(-c2cc(N[C@H]3CC[C@H](N)CC3)ncc2Cl)n1 [Compound 77] |
| 7.95 nM | CNC[C@H]1CC[C@H](Nc2cc(-c3cccc(NCc4cccc(F)c4)n3)c(Cl)cn2)CC1 [Compound 22, 5′-chloro-N6-(3-fluorobenzyl)-N2′-(trans-4-((methylamino)methyl)cyclohexyl)-2,4′-bipyridine-2′,6-diamine] |
| 7.94 nM | O[C@H]1CC[C@H](Nc2cc(-c3cncc(NCC4CCOCC4)n3)c(Cl)cn2)CC1 [Compound 208, trans-4-(5-chloro-4-(6-((tetrahydro-2H-pyran-4-yl)methyl)aminopyrazin-2-yl)pyridin-2-yl-amino)cyclohexanol] |
| 7.94 nM | CN(C)[C@H]1CC[C@H](Nc2cc(-c3cccc(NCc4cc(F)cc(F)c4)n3)c(Cl)cn2)CC1 [Compound 198] |
| 7.94 nM | N[C@H]1CC[C@H](Nc2cc(-c3cccc(NCc4cccc(F)c4)n3)c(F)cn2)CC1 [Compound 197] |
| 7.94 nM | COCCN[C@H]1CC[C@H](Nc2cc(-c3nc(NCC4CCOCC4)ccc3Cl)c(Cl)cn2)CC1 [Compound 258, 3,5′-dichloro-N2′-(trans-4-(2-methoxyethylamino)cyclohexyl)-N6-((tetrahydro-2H-pyran-4-yl)methyl)-2,4′-bipyridine-2′,6-diamine] |
| 7.9 nM | Fc1cccc(CNc2cccc(-c3cc(NCC[C@H]4CCCNC4)ncc3Cl)n2)c1 [Compound 165] |
| 1 nM | CC1(C)CC(CNc2ccc(Cl)c(-c3cc(N[C@H]4CC[C@H](NC[C@H](O)C(F)(F)F)CC4)ncc3Cl)n2)CCO1 (stereo partly drawn) [Compound 298, (2S)-3-(trans-4-(3,5′-dichloro-6-((2,2-dimethyltetrahydro-2H-pyran-4-yl)methyl)amino-2,4′-bipyridin-2′-yl-amino)cyclohexylamino)-1,1,1-trifluoropropan-2-ol] |
